From article PMC8199245, “Serotonin Promotes Serum Albumin Interaction with the Monomeric Amyloid β Peptide” (International Journal of Molecular Sciences, 2021)
“Also recorded” adds a separate entry of the source.

Columns and labels:
HSA [1] = experiment: Glutaraldehyde crosslinking of HSA with SDS-PAGE; parameters: species or system human; settings: HSA 36 µM, 37 °C; for effect on quaternary structure of HSA: 1 mM ligand, glutaraldehyde crosslinking, overall statements also rest on DLS
HSA [2] = tested on: HSA; parameters: method as in PMID 17191887; settings: read-out: equilibrium dissociation constant (KD) for the HSA–SRO complex; cited from earlier work
[3] = tested on: Aβ level in interstitial brain fluid; settings: direct infusion into the hippocampus, mouse model of AD; cited from earlier work
Method: (§1) The SRO concentration in plasma is 0.28–1.7 µM [40], but in the synaptic cleft it may reach 6 mM and 55 nM after SRO diffuses into the extracellular compartment.

[4] = physiological (endogenous), cited from earlier work
Method: as §1

Aβ42 = tested on: Aβ42; parameters: method as in PMID 29131485; settings: cited from earlier work
[5] = target: T1, HSA–monomeric Aβ40 (recombinant human Aβ40) (Homo sapiens, UniProt P02768); experiment: SPR of HSA interaction with immobilized monomeric Aβ40, without/with SRO or TRP; settings: SPR 25 °C; for Kd: KD (apparent, HSA–Aβ40), KD × 10^7, i.e. value × 10^−7 M; for Kd / ka (effective, HSA–Aβ40) / kd (effective, HSA–Aβ40): HSA 5–60 µM, mean ± SD; for ka (effective, HSA–Aβ40): ka × 10^−3, i.e. value × 10^3 M^−1s^−1; for kd (effective, HSA–Aβ40): kd × 10^4, i.e. value × 10^−4 s^−1
Method: (§2) The recombinant human Aβ40 or Aβ42 sample was immobilized on the surface of the SPR sensor chip by amine coupling, followed by removal from the surface of the non-covalently bound Aβ molecules by a 2% SDS water solution [12]. […] (5–60 µM) was used as an analyte.
(§3) Aβ40/Aβ42 was immobilized on the sensor chip’s surface by amine coupling.
(§4) Recombinant human Aβ40/Aβ42 samples were pretreated for SPR measurements mainly as described in [46]. The freeze-dried Aβ sample was dissolved in neat TFA at a concentration of 0.5–1 mg/mL. The solution was sonicated for 30 s. TFA was evaporated using Eppendorf Concentrator plus. The dried Aβ sample was dissolved in DMSO at a concentration of 2 mg/mL, and stored at −20 °C.
(§5) SPR measurements were performed at 25 °C using a Bio-Rad ProteOn™ XPR36 instrument mainly as previously described. Ligand (57 μg/mL recombinant human Aβ40/Aβ42 in 10 mM sodium acetate, pH 4.5 buffer) was immobilized on a ProteOn GLH sensor chip surface (up to 7000–9000 RUs) by amine coupling. The remaining activated amine groups on the chip surface were blocked by 1 M ethanolamine solution. The non-covalently bound Aβ40/Aβ42 molecules were washed from the chip surface with 2% SDS water solution until stabilization of the signal. […] The sensor chip surface was regenerated by passage of 10 mM EDTA pH 7.9 solution containing 2% SDS. […] The double-referenced SPR sensograms were globally fitted according to the one-site binding model using Bio-Rad ProteOn Manager™ v.3.1 software.

HSA–monomeric Aβ [6] = experiment: SPR of HSA interaction with monomeric Aβ (isoform not given); format: binding, human
HSA [7] = experiment: Dynamic light scattering of HSA; parameters: species or system human; settings: 1 mM SRO, HSA 36 µM, 25 °C, pH 7.4
Method: The standard deviations are indicated.
The back-scattered light from a 4 mW He/Ne laser (632.8 nm) was collected at an angle of 173°. The acquisition time for a single autocorrelation function was 45 s. The resulting autocorrelation functions are averaged values from 20 measurements. The volume–size distributions were calculated using the following parameters: a refractive index of 1.330 and a viscosity value of 0.8882 cP.

[8] = target: T2, HSA–monomeric Aβ42 (recombinant human Aβ42) (Homo sapiens, UniProt P02768); experiment: SPR of HSA interaction with immobilized monomeric Aβ42, without/with SRO or TRP; settings: SPR 25 °C; for Kd: KD (apparent, HSA–Aβ42), KD × 10^7, i.e. value × 10^−7 M; for Kd / ka (effective, HSA–Aβ42) / kd (effective, HSA–Aβ42): HSA 5–60 µM, mean ± SD; for ka (effective, HSA–Aβ42): ka × 10^−3, i.e. value × 10^3 M^−1s^−1; for kd (effective, HSA–Aβ42): kd × 10^4, i.e. value × 10^−4 s^−1
Method: as §2, §3, §4, §5

HSA [9] = settings: cited from earlier work
[10] = target: T1, HSA–monomeric Aβ40 (recombinant human Aβ40); parameters: method as in PMID 30685090; settings: cited from earlier work
HSA–monomeric Aβ [11] = settings: cited from earlier work
Source text: (§6) An alternative, less invasive approach to the lowering of the free Aβ level in the brain is a pharmacologically guided shift in the equilibrium between HSA and Aβ towards their complex. The latter possibility was recently confirmed by arachidonic/linoleic-aci ...

[12] = target: T2, HSA–monomeric Aβ42 (recombinant human Aβ42); parameters: method as in PMID 30685090; settings: cited from earlier work
[13] = tested on: HSA-induced suppression of Aβ fibrillation; parameters: method as in 2 sources, ref 5 = [5]; PMID 10347147; doi:10.1074/jbc.274.23.15990; 5. Bohrmann B. Tjernberg L. Kuner P. Poli S. Levet-Trafit B. Naslund J. Richards G. Huber W. Dobeli H. Nordstedt C. Endogenous proteins controlling amyloid beta-peptide polymerization. Possible implic ||| ref 14 = [14]; PMID 29409811; doi:10.1016/j.jmb.2018.01.008; 14. Bode D.C. Stanyon H.F. Hirani T. Baker M.D. Nield J. Viles J.H. Serum albumin’s protective inhibition of amyloid-β fiber formation is suppressed by cholesterol, fatty acids and warfarin J. Mol. Bi; settings: cited from earlier work
[14] = tested on: brain Aβ deposition in AD mouse models; settings: dietary; cited from earlier work
Source text: as §6

[15] = 1 mM SRO, main cause of KD decrease

T1 sequence (P05067 672-711): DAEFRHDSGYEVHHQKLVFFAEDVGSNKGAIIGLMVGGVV
T1 sequence (P02768 25-609): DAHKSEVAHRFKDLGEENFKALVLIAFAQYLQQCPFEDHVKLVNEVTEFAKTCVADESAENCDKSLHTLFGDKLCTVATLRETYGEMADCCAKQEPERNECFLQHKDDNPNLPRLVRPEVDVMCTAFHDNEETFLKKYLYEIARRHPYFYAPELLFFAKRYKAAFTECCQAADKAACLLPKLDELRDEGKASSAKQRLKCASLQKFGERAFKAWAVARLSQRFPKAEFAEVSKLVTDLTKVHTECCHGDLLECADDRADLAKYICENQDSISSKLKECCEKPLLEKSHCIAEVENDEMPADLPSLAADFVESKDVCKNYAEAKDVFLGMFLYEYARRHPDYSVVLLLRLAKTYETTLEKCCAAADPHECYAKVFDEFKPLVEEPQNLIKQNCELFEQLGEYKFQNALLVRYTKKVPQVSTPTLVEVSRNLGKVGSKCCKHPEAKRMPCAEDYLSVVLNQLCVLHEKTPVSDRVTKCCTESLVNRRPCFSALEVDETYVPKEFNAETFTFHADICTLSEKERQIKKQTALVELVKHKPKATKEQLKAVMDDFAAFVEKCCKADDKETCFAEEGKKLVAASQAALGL
T2 sequence (P05067 672-713): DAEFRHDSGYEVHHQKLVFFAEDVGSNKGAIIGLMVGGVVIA
T2 sequence (P02768 25-609): as the sequence (P02768 25-609) above

NCCc1c[nH]c2ccc(O)cc12 [SRO, 5-hydroxytryptamine]
fold increase in content of HSA high-molecular-weight forms (at the expense of the monomer) (HSA [1]; 1 mM SRO, 0.02% glutaraldehyde, 1 h, pH 7.4): approximately 2 fold | effect on quaternary structure of HSA (HSA [1]): more distinct changes in the quaternary structure of HSA, relative to the TRP-induced effects; also recorded: more marked changes in the quaternary structure of HSA | Kd (HSA [2]): 1600 nM | Aβ level in interstitial brain fluid [3]: decrease in the Aβ level in interstitial brain fluid | SRO concentration after diffusion into the extracellular compartment ([4]; may reach): ≤ 55 nM | SRO concentration in the synaptic cleft ([4]; may reach): ≤ 6 mM | SRO concentration in plasma [4]: 0.28 to 1.7 µM | inhibition of Aβ42 fibrillation (Aβ42; 50–100 µM SRO): efficient inhibition of Aβ42 fibrillation; also recorded: potent inhibition of Aβ42 fibrillation | factor of decrease in apparent KD / increase in affinity of HSA–Aβ40 ([5]; 1 mM SRO vs no ligand, pH 7.4): 7 factor | effect on dissociation of HSA–Aβ40 complex [5, 15]: slowdown of the dissociation process | Kd ([5]; 10 µM HSA ligand, pH 7.4): 40 ± 20 nM | Kd ([5]; 100 µM HSA ligand, pH 7.4): 15 ± 13 nM | Kd ([5]; 1 mM HSA ligand, pH 7.4): 9 ± 5 nM | ka (effective, HSA–Aβ40) ([5]; 10 µM HSA ligand, pH 7.4): 0.7 ± 0.2 × 10^−3, M^−1s^−1 | ka (effective, HSA–Aβ40) ([5]; 100 µM HSA ligand, pH 7.4): 1.5 ± 1.2 × 10^−3, M^−1s^−1 | ka (effective, HSA–Aβ40) ([5]; 1 mM HSA ligand, pH 7.4): 1.0 ± 0.5 × 10^−3, M^−1s^−1 | kd (effective, HSA–Aβ40) ([5]; 10 µM HSA ligand, pH 7.4): 0.26 ± 0.03 × 10^4, s^−1 | kd (effective, HSA–Aβ40) ([5]; 100 µM HSA ligand, pH 7.4): 0.19 ± 0.12 × 10^4, s^−1 | kd (effective, HSA–Aβ40) ([5]; 1 mM HSA ligand, pH 7.4): 0.09 ± 0.05 × 10^4, s^−1 | effect on HSA's affinity to Aβ (HSA–monomeric Aβ [6]; 10 µM SRO, SPR 25 °C): absence of a marked influence | effect on HSA's affinity to monomeric Aβ / activation of HSA–Aβ interaction (HSA–monomeric Aβ [6]; general statement, SPR): the most potent activator of HSA–Aβ interaction reported to date | fold decrease in KD of HSA–Aβ (HSA–monomeric Aβ [6]; up to, vs no ligand): ≤ 17 fold | accumulation of multimeric HSA forms (DLS), compared with TRP (HSA [7]): more prominent accumulation of its multimeric forms | factor of decrease in apparent KD / increase in affinity of HSA–Aβ42 ([8]; 1 mM SRO vs no ligand, pH 7.4): 17 factor | effect on dissociation of HSA–Aβ42 complex [8, 15]: slowdown of the dissociation process | Kd ([8]; 10 µM HSA ligand, pH 7.4): 40 ± 20 nM | Kd ([8]; 100 µM HSA ligand, pH 7.4): 9 ± 4 nM | Kd ([8]; 1 mM HSA ligand, pH 7.4): 7 ± 1.5 nM | ka (effective, HSA–Aβ42) ([8]; 10 µM HSA ligand, pH 7.4): 0.6 ± 0.4 × 10^−3, M^−1s^−1 | ka (effective, HSA–Aβ42) ([8]; 100 µM HSA ligand, pH 7.4): 0.9 ± 0.2 × 10^−3, M^−1s^−1 | ka (effective, HSA–Aβ42) ([8]; 1 mM HSA ligand, pH 7.4): 1.2 ± 0.2 × 10^−3, M^−1s^−1 | kd (effective, HSA–Aβ42) ([8]; 10 µM HSA ligand, pH 7.4): 0.20 ± 0.14 × 10^4, s^−1 | kd (effective, HSA–Aβ42) ([8]; 100 µM HSA ligand, pH 7.4): 0.08 ± 0.02 × 10^4, s^−1 | kd (effective, HSA–Aβ42) ([8]; 1 mM HSA ligand, pH 7.4): 0.086 ± 0.009 × 10^4, s^−1

N[C@@H](Cc1c[nH]c2ccccc12)C(=O)O [TRP, L-tryptophan]
effect on quaternary structure of HSA (HSA [1]): did not affect the quaternary structure of HSA | inhibition of Aβ42 fibrillation compared with SRO (Aβ42): markedly less effective; also recorded: much less efficient inhibition of Aβ42 fibrillation | effect on HSA's apparent affinity to Aβ40 ([5]; 1 mM ligand): did not affect HSA’s apparent affinity | Kd ([5]; 10 µM HSA ligand, pH 7.4): 80 ± 40 nM | Kd ([5]; 1 mM HSA ligand, pH 7.4): 70 ± 40 nM | ka (effective, HSA–Aβ40) ([5]; 10 µM HSA ligand, pH 7.4): 0.7 ± 0.2 × 10^−3, M^−1s^−1 | ka (effective, HSA–Aβ40) ([5]; 100 µM HSA ligand, pH 7.4): 0.47 ± 0.15 × 10^−3, M^−1s^−1 | ka (effective, HSA–Aβ40) ([5]; 1 mM HSA ligand, pH 7.4): 0.6 ± 0.2 × 10^−3, M^−1s^−1 | kd (effective, HSA–Aβ40) ([5]; 10 µM HSA ligand, pH 7.4): 0.49 ± 0.12 × 10^4, s^−1 | kd (effective, HSA–Aβ40) ([5]; 100 µM HSA ligand, pH 7.4): 0.53 ± 0.17 × 10^4, s^−1 | kd (effective, HSA–Aβ40) ([5]; 1 mM HSA ligand, pH 7.4): 0.4 ± 0.2 × 10^4, s^−1 | equilibrium association constant of TRP with HSA (HSA [9]): 27000 M⁻¹ | effect on HSA's affinity to monomeric Aβ / activation of HSA–Aβ interaction (HSA–monomeric Aβ [6]; general statement, SPR): does not affect HSA’s affinity to monomeric Aβ; also recorded: did not affect HSA’s effective affinity for Aβ; also recorded: inactive | effect on kinetics of HSA–Aβ interaction (HSA–monomeric Aβ [6]; general statement, SPR): slowdown of the association and dissociation processes; also recorded: slowed their association and dissociation | effect on kinetics of HSA–Aβ42 interaction ([8]; 1 mM TRP): slowdown of the association and dissociation processes | effect on HSA's apparent affinity to Aβ42 ([8]; 1 mM ligand): did not affect HSA’s apparent affinity | Kd ([8]; 10 µM HSA ligand, pH 7.4): 60 ± 40 nM | Kd ([8]; 1 mM HSA ligand, pH 7.4): 60 ± 30 nM | ka (effective, HSA–Aβ42) ([8]; 10 µM HSA ligand, pH 7.4): 0.8 ± 0.4 × 10^−3, M^−1s^−1 | ka (effective, HSA–Aβ42) ([8]; 100 µM HSA ligand, pH 7.4): 0.5 ± 0.3 × 10^−3, M^−1s^−1 | ka (effective, HSA–Aβ42) ([8]; 1 mM HSA ligand, pH 7.4): 0.29 ± 0.07 × 10^−3, M^−1s^−1 | kd (effective, HSA–Aβ42) ([8]; 10 µM HSA ligand, pH 7.4): 0.4 ± 0.2 × 10^4, s^−1 | kd (effective, HSA–Aβ42) ([8]; 100 µM HSA ligand, pH 7.4): 0.7 ± 0.6 × 10^4, s^−1

CCCCC/C=C\C/C=C\C/C=C\C/C=C\CCCC(=O)O [arachidonic acid]
fold decrease in KD of HSA–monomeric Aβ40 [10]: 3 fold | effect on HSA affinity to Aβ (HSA–monomeric Aβ [11]): enhancement of HSA affinity to Aβ | fold decrease in KD of HSA–monomeric Aβ42 [12]: 3 fold

CC(C)CCC[C@@H](C)[C@H]1CC[C@H]2[C@@H]3CC=C4C[C@@H](O)CC[C@]4(C)[C@H]3CC[C@]12C [cholesterol]
effect on HSA-induced suppression of Aβ fibrillation [13]: prevent HSA-induced suppression of Aβ fibrillation

CCCCC/C=C\C/C=C\CCCCCCCC(=O)O [linoleic acid]
fold decrease in KD of HSA–monomeric Aβ40 [10]: 3 fold | effect on HSA affinity to Aβ (HSA–monomeric Aβ [11]): enhancement of HSA affinity to Aβ | effect on brain Aβ deposition [14]: reduces brain Aβ deposition | fold decrease in KD of HSA–monomeric Aβ42 [12]: 3 fold

CC(=O)CC(c1ccccc1)c1c(O)c2ccccc2oc1=O (stereo not drawn) [warfarin]
effect on HSA-induced suppression of Aβ fibrillation [13]: prevent HSA-induced suppression of Aβ fibrillation
